# Measurements as given in PubChem BioAssay (NCI).
# Where “and” joins values, the source holds several entries; their conditions need not be identical. Identical values can stand only once.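 Step 1: Grow cells in 96-well plates. Step 2: Expose to compound for 48 hours at 5 concentrations. Step 3: Interpolate endpoints linearly; if unreached, use highest concentration. Here, GI50 denotes the concentration required for 50% inhibition of growth. TGI: total growth inhibition.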
# Key:
# Test in all cases: NCI-60 cell line screen, 48 h
# SR leukemia = test system: SR leukemia
# MALME-3M melanoma = test system: MALME-3M melanoma
# OVCAR-3 ovarian = test system: OVCAR-3 ovarian
# CAKI-1 renal = test system: CAKI-1 renal
# MDA-MB-231 breast = test system: MDA-MB-231 breast
# A549 NSCLC = test system: A549 NSCLC
# SW-620 colon = test system: SW-620 colon
# DU-145 prostate = test system: DU-145 prostate
# MDA-MB-435 = test system: MDA-MB-435
# HCT-116 colon = test system: HCT-116 colon
SMILES,TGI (SR leukemia),GI50 (MALME-3M melanoma),TGI (MALME-3M melanoma),GI50 (OVCAR-3 ovarian),TGI (OVCAR-3 ovarian),GI50 (CAKI-1 renal),TGI (CAKI-1 renal),GI50 (MDA-MB-231 breast) [µM],TGI (MDA-MB-231 breast),GI50 (A549 NSCLC),TGI (A549 NSCLC),TGI (SW-620 colon),GI50 (DU-145 prostate) [µM],TGI (DU-145 prostate),GI50 (MDA-MB-435) [µM],TGI (MDA-MB-435),GI50 (HCT-116 colon) [µM],TGI (HCT-116 colon),GI50 (SR leukemia),GI50 (SW-620 colon)
C#COc1cccc(Nc2ncnc3ncc(NC(=O)CCl)cc23)c1,> 62.5 µM,> 23.7 µM,> 38 µM,> 25 µM,> 62.5 µM,> 15.2 µM,> 62.5 µM,> 27.3,> 62.5 µM,> 13.8 µM,> 62.5 µM,> 62.5 µM,> 26.4,> 62.5 µM,> 49.8,> 62.5 µM,0.239,> 62.5 µM,,
CC(=O)OC1CCC2(C)C(=CCC3C2CCC2(C)C(C(C)C(=O)O)CCC32)C1 (stereo unspecified),> 100 µM,,> 100 µM,,> 100 µM,,> 100 µM,,> 100 µM,,> 100 µM,> 100 µM,,> 100 µM,,> 100 µM,,> 100 µM,,
CC(=O)OC(C)(C)N=Nc1ccc(Br)cc1,43.3 µM,,> 100 µM,,> 100 µM,,48.3 µM,,> 100 µM,,> 100 µM,> 100 µM,,> 100 µM,,> 100 µM,,> 100 µM,,
CCc1c(Cl)nc(Cl)nc1Cl,> 100 µM,,0.718 µM,,0.374 µM,,0.404 µM,,2.81 µM,,13.7 µM,1.39 µM,,6.35 µM,,12.1 µM,,0.44 µM,,
Oc1cc(O)c2c(=S)cc(-c3ccc(Cl)cc3)oc2c1,29.6 µM,2.01 µM,6.71 µM,1.52 µM,8.94 µM,2.95 µM,19.1 µM,2,6.54 µM,6.58 µM,36.8 µM,16.9 µM,4.09,35.1 µM,3.41,14 µM,2.84,10.4 µM,3.52 µM,3.55 µM
CC[C@@H](C(=O)[C@@H](C)[C@@H](O)[C@H](C)[C@@H]1O[C@@H]([C@@H](CC)C(=O)O)CC[C@@H]1C)[C@H]1OC2(C=C[C@@H](O)[C@]3(CC[C@@](C)([C@H]4CC[C@](O)(CC)[C@H](C)O4)O3)O2)[C@H](C)C[C@@H]1C (stereo partly specified),1.78 µM,0.224 µM,0.86 µM,0.101 µM,15.1 µM,1.2 µM,> 50 µM,0.239,17.1 µM,0.233 µM,9.77 µM,9.14 µM,1.58,> 50 µM,0.568,1.51 µM,0.359,14.4 µM,0.0815 µM,0.733 µM
COc1c(CNC(=O)CCl)cc2[nH]c(C)cc2c1CNC(=O)CCl,> 100 µM,16.1 µM,50.3 µM,3.41 µM,13 µM,6.73 µM,37 µM,6.12,41.3 µM,7.38 µM,26.7 µM,20.7 µM,5.03,19.7 µM,5.2,36.4 µM,2.93,15.7 µM,4.36 µM,5.61 µM
c1ccc(-c2nn(-c3ccccc3)[n+](-c3cccc4ccccc34)n2)cc1,7.93 µM,0.333 µM,1.13 µM,1.11 µM,19.1 µM,37.1 µM,> 100 µM,0.787,12.9 µM,2.65 µM,> 100 µM,15.9 µM,4.26,> 100 µM,0.961,2.67 µM,0.708,17.9 µM,0.644 µM,1.44 µM
O=S1(=O)CS(=O)(=O)OCCCO1,> 100 µM,,> 100 µM,,> 100 µM,,> 100 µM,,> 100 µM,,> 100 µM,> 100 µM,,> 100 µM,,> 100 µM,,> 100 µM,,
O=C1/C(=C\c2coc3ccccc3c2=O)c2ccccc2N1c1c(Cl)cccc1Cl,56.4 µM,2.48 µM,13 µM,2.71 µM,10.3 µM,2.45 µM,> 100 µM,3.88,> 100 µM,4.24 µM,> 100 µM,> 100 µM,4.71,> 100 µM,2.7,9.69 µM,2.01,14.5 µM,1.44 µM,5.28 µM
C=C1CCC2C3(C)COC(c4ccc(SC)cc4)OC3CCC2(C)C1C/C=C1/C(=O)OCC1O (stereo unspecified),8.04 µM,14.9 µM,32.1 µM,2.8 µM,6.91 µM,11.2 µM,28.2 µM,5.52,16.5 µM,5.31 µM,18.4 µM,3.66 µM,11.5,23.7 µM,3.69,16.4 µM,1.76,3.44 µM,2.53 µM,1.93 µM
Cc1cc(-c2nc(-c3ccc(OC(F)(F)F)cc3)no2)nn1Cc1ccnc(N2CCN(C3CC3)CC2)c1,> 74 µM,4.77 µM,> 55.6 µM,10.3 µM,> 100 µM,6.3 µM,> 100 µM,12.6,> 78.7 µM,2.55 µM,> 100 µM,> 68.7 µM,> 59.4,> 100 µM,2.34,> 59 µM,< 0.01,> 100 µM,,> 34.5 µM
O=C1/C(=C/c2ccccc2)CCC/C1=C\c1ccccc1,36.5 µM and > 64.3 µM and 7.58 µM,6.54 µM and 21 µM,11.9 µM and 33.3 µM and 59.7 µM,6.25 µM and 4.04 µM,11.3 µM and 24 µM and 13 µM,7.03 µM and 17 µM,13 µM and 46.4 µM and 44.7 µM,18.5,11.6 µM and 68.1 µM,7.66 µM and 17.5 µM,17.8 µM and 45.7 µM and 42.5 µM,11.8 µM and 6.4 µM and 11.2 µM,16.9,13.5 µM and 34 µM,2.71,11 µM and 14.1 µM,,5.86 µM and 3.09 µM and 3.33 µM,10.8 µM and 3.16 µM,6.37 µM and 3.19 µM
CC(=O)OC[C@]12CC[C@@H]([C@@H](C)C(N)=O)[C@@H]1[C@H]1CC[C@@H]3[C@@]4(C)CC[C@H](OC(C)=O)C(C)(C)[C@@H]4CC[C@@]3(C)[C@]1(C)CC2,23.5 µM,10.5 µM,24.2 µM,3.95 µM,13.3 µM,3.24 µM,15.4 µM,11.8,30.8 µM,3.97 µM,47.5 µM,24.2 µM,9.94,23.3 µM,5.23,22.3 µM,3.57,14.7 µM,3.32 µM,7.69 µM
O=C1c2ccccc2-c2c1c1ccccc1c(=O)n2CCCN1CCN(CCCn2c3c(c4ccccc4c2=O)C(=O)c2ccccc2-3)CC1,17.9 µM,> 57.6 µM,> 100 µM,> 100 µM,> 100 µM,> 100 µM,> 100 µM,2.41,27.4 µM,> 100 µM,> 100 µM,> 100 µM,23.7,> 86.4 µM,> 100,> 100 µM,35.3,> 100 µM,0.0809 µM,> 100 µM
O=C(c1cccs1)c1c(C(F)(F)F)n([O-])c2ccc(F)cc2[n+]1=O,0.558 µM,0.669 µM,2.25 µM,0.793 µM,2.35 µM,1.62 µM,3.14 µM,1.5,3.1 µM,2.32 µM,7.02 µM,2.32 µM,1.15,3.12 µM,1.31,2.87 µM,0.922,2.41 µM,0.148 µM,0.523 µM
N#Cc1cccc(NC(=O)c2oc3ccccc3c2-c2cnn(-c3ccccc3)c2)c1,> 500 µM,278 µM,> 500 µM,> 500 µM,> 500 µM,> 500 µM,> 500 µM,90,> 500 µM,> 500 µM,> 500 µM,> 500 µM,> 500,> 500 µM,> 500,> 500 µM,> 500,> 500 µM,148 µM,> 500 µM
C=C1C(=O)O[C@@H]2C[C@@H]1CC[C@@]1(C)O[C@@H]1CC[C@@]1(C)O[C@@H]1CC[C@@]2(C)O,16.3 µM,16.2 µM,42.3 µM,15.7 µM,37.3 µM,22.7 µM,72.8 µM,13.7,31.6 µM,73.8 µM,> 100 µM,42.2 µM,30.3,> 100 µM,17.4,68.4 µM,16.4,32 µM,3.12 µM,14.1 µM
COc1cc2c3c(n(C)c(=O)c2cc1OC)-c1cc2c(cc1/C3=C\CCCBr)OCO2,> 100 µM,7.2 µM,> 45.4 µM,> 92.2 µM,> 100 µM,48.1 µM,> 100 µM,9.16,> 45.3 µM,> 100 µM,> 100 µM,> 100 µM,> 59.6,> 100 µM,> 100,> 100 µM,27.2,> 60.8 µM,13.3 µM,> 100 µM
